Reference: patent US20240270801A1, “EPITOPE PEPTIDE OF HUMAN ALPHA-SYNUCLEIN AND PHARMACEUTICAL COMPOSITION INCLUDING SAID PEPTIDE” (Sumitomo Pharma Co., Ltd., priority 2021, published 2024)
Non-standard residues stand in square brackets, D forms with d. No end group written: not given here. Ahx = NCCCCCC(=O)O

Columns and labels:
[1] = system: human αSyn; assay: Antibody-inducing ability in mice: ELISA antibody titer of immune serum with respect to human αSyn; type: in vivo, mouse; parameters: key to Antibody titer with respect to human αSyn, relative to control: log titer relative to control conjugate (control = 1); conditions: for Antibody titer with respect to human αSyn (N = 4 − 6, mean ± standard deviation): Example 2, serum 2 weeks after second administration; for Antibody titer compared with control conjugate (in words): Example 9, mice, human αSyn and aggregated human αSyn, control AJ-p150 or AJ-p54
Procedure: (§1) Using the various AJ peptide-human αSyn peptide conjugates produced in Example 1, an antibody-inducing ability with respect to human αSyn in mice was evaluated. The various AJ-human αSyn peptide conjugates (250 μg/mouse) or KLH-DMPVDPDN (25 μg/mouse) in physiological saline were intramuscularly administered to balb/c mice (females, 6 weeks old, CLEA Japan, Inc.) twice at a 2-week interval for immunization using aluminum hydroxide (Alum) (InvivoGen, 50 μg/mouse) as an adjuvant. As a negative control, physiological saline (100 μL/mouse) comprising the same amount of aluminum hydroxide was administered twice. Two weeks after the second administration, serum was recovered to evaluate the antibody titer with respect to human αSyn by ELISA.
ELISA was performed by the following method. 96-well plates were coated with human αSyn (Sigma) at 0.2 μg/well. After washing with PBST (Phosphate Buffered Saline comprising 0.05% Tween) once, blocking was performed with 3% skim milk (FUJIFILM Wako Pure Chemical Corporation). After washing with PBST three times, diluted serum was added to cause a reaction at room temperature for 1 hour. Furthermore, after washing with PBST three times, Goat anti-mouse IgG-HRP (abcam) was added to cause a reaction at room temperature for 1 hour. After washing with PBST three times, SureBlue TMB Microwell Peroxidase Substrate (KPL) was added to cause a reaction at room temperature for 10 minutes while light shielding. An equal volume of a TMB Stop Solution (KPL) was added to stop the reaction, and the absorbance at 450 nm was measured. ELISA with respect to aggregated human αSyn was performed by coating with the aggregated human αSyn (Stress Marq) at 15 ng/well instead of human αSyn in the above-mentioned method. […]
The antibody-inducing ability of the produced various human αSyn peptide conjugates with respect to human αSyn and aggregated human αSyn in the mice was evaluated by the method described in Example 2 using the antibody titers with respect to human αSyn and aggregated human αSyn of the mouse immune serum. […] In Table 6, the antibody titer of AJ-p242, AJ-p244, AJ-p347, or AJ-p361 is shown with the antibody titer of AJ-p150 as a control being 1 (logarithm). In addition, the antibody titers of AJ-p229, AJ-p237, and AJ-p298 are shown with the antibody titer of AJ-p54 as a control being 1 (logarithm). […]

[2] = system: aggregated human αSyn; assay: Antibody-inducing ability in mice: ELISA antibody titer of immune serum with respect to aggregated human αSyn; type: in vivo, mouse; conditions: for Antibody titer with respect to aggregated human αSyn (N = 4 − 6, mean ± standard deviation): Example 2, serum 2 weeks after second administration; for Antibody-inducing ability regarding the aggregated human αSyn (in words): Example 2, balb/c mice; for Antibody titer with respect to aggregated human αSyn, relative to control: mice
Procedure: as §1
ELISA was performed by the following method. 96-well plates were coated with human αSyn (Sigma) at 0.2 μg/well. After washing with PBST (Phosphate Buffered Saline comprising 0.05% Tween) once, blocking was performed with 3% skim milk (FUJIFILM Wako Pure Chemical Corporation). After washing with PBST three times, diluted serum was added to cause a reaction at room temperature for 1 hour. Furthermore, after washing with PBST three times, Goat anti-mouse IgG-HRP (abcam) was added to cause a reaction at room temperature for 1 hour. After washing with PBST three times, SureBlue TMB Microwell Peroxidase Substrate (KPL) was added to cause a reaction at room temperature for 10 minutes while light shielding. An equal volume of a TMB Stop Solution (KPL) was added to stop the reaction, and the absorbance at 450 nm was measured. ELISA with respect to aggregated human αSyn was performed by coating with the aggregated human αSyn (Stress Marq) at 15 ng/well instead of human αSyn in the above-mentioned method.
The antibody-inducing ability of the AJ-human αSyn peptide conjugates (AJ-p54, AJ-p54-KLH, and AJ-DMPVDPDN) produced in Example 1 with respect to human αSyn and aggregated human αSyn in mice was evaluated. Physiological saline or the AJ-human αSyn peptide conjugate (250 μg/mouse) was intramuscularly administered to balb/c mice (females, 6 weeks old, CLEA Japan, Inc.) twice at a 2-week interval using Alum (InvivoGen, 50 μg/mouse) as an adjuvant. Furthermore, KLH-DMPVDPDN (25 μg/mouse) was administered using Alum (InvivoGen, 50 μg/mouse) as an adjuvant. Two weeks after the second administration, serum was recovered to evaluate the antibody titer by ELISA. ELISA was performed by the method described in Example 2.
The antibody-inducing ability of the produced various human αSyn peptide conjugates with respect to human αSyn and aggregated human αSyn in the mice was evaluated by the method described in Example 2 using the antibody titers with respect to human αSyn and aggregated human αSyn of the mouse immune serum. […] In Table 6, the antibody titer of AJ-p242, AJ-p244, AJ-p347, or AJ-p361 is shown with the antibody titer of AJ-p150 as a control being 1 (logarithm). In addition, the antibody titers of AJ-p229, AJ-p237, and AJ-p298 are shown with the antibody titer of AJ-p54 as a control being 1 (logarithm).
The antibody-inducing ability of the AJ-human αSyn peptide conjugates with a modified linker with respect to human αSyn and aggregated human αSyn in the mice was evaluated using the antibody titers with respect to human αSyn and aggregated human αSyn of the mouse immune serum. […] In Table 8, the antibody titers of the AJ-human αSyn peptide conjugates with various modified linkers comprising p54 are shown with the antibody titer of AJ-p54 as a control being 1 (logarithm). In addition, the antibody titers of the AJ-human αSyn peptide conjugates with various modified linkers comprising p150 are shown with the antibody titer of AJ-p150 as a control being 1 (logarithm).

[3] = balb/c mice, i.m. twice at 2-week interval, Alum, AJ conjugates 250 μg/mouse, KLH-DMPVDPDN 25 μg/mouse
[4] = Example 4, balb/c mice, i.m. twice at 2-week interval, Alum, AJ conjugates 250 μg/mouse, KLH-DMPVDPDN 25 μg/mouse
[5] = Example 9, mice, N = 4, titer of AJ-p150 or AJ-p54 as control being 1 (logarithm)
[6] = Example 9, N = 4, titer of AJ-p150 or AJ-p54 as control being 1 (logarithm)
[7] = Example 10, modified linker, mice, titer of AJ-p54 or AJ-p150 as control being 1 (logarithm)
[8] = Example 10, modified linker, titer of AJ-p54 or AJ-p150 as control being 1 (logarithm)

Substance	Antibody titer with respect to human αSyn (N = 4 − 6, mean ± standard deviation) [1, 3]	Antibody titer with respect to aggregated human αSyn (N = 4 − 6, mean ± standard deviation) [2, 3]	Antibody titer with respect to human αSyn, relative to control [1, 7]	Antibody titer with respect to aggregated human αSyn, relative to control [2, 8]	further results
ELKLIFLHRLKRLRKRLKRKXKKDQLGANE (ELKLIFLHRLKRLRKRLKRK[Ahx]KKDQLGANE) [AJ-p142]	4693 ± 6431	576 ± 732			
ELKLIFLHRLKRLRKRLKRKXKKDQLGKND (ELKLIFLHRLKRLRKRLKRK[Ahx]KKDQLGKND) [AJ-p233]	1323 ± 1505	555 ± 377			
ELKLIFLHRLKRLRKRLKRKXKKDQLGKNE-C-KLH (not fully specified; C-terminal Cys linked to KLH) [AJ-p54-KLH, KLH-modified AJ-human αSyn peptide conjugate, KLH linked via cysteine to the C-terminal]					Induction of the antibody to human αSyn (in words) ([1]; Example 3, mice): induced to the same extent; Antibody titer (N = 4 − 6, mean ± standard deviation) with respect to human αSyn ([1]; Example 3, mice, same manner as Example 2): 1621 ± 681; Induction of the antibody to human αSyn (in words) ([1]; Example 4, balb/c mice): induced; Antibody titer with respect to human αSyn (mean ± standard deviation) [1, 4]: 1621 ± 681; Induction of the antibody to aggregated human αSyn (in words) ([2]; Example 4, balb/c mice): induced; Antibody titer with respect to aggregated human αSyn (mean ± standard deviation) [2, 4]: 640 ± 314
ELKLIFLHRLKRLRKRLKRKXKKDQLGKNEE (ELKLIFLHRLKRLRKRLKRK[Ahx]KKDQLGKNEE) [AJ-p167]	2389 ± 1399	1664 ± 1409			Antibody-inducing ability regarding the aggregated human αSyn (in words) [2]: particularly strong antibody-inducing ability
ELKLIFLHRLKRLRKRLKRKXKKNQLGKND (ELKLIFLHRLKRLRKRLKRK[Ahx]KKNQLGKND) [AJ-p272]	4096 ± 2896	1536 ± 1724			Antibody-inducing ability regarding the aggregated human αSyn (in words) [2]: particularly strong antibody-inducing ability
ELKLIFLHRLKRLRKRLKRKXKKNQLGKNE (ELKLIFLHRLKRLRKRLKRK[Ahx]KKNQLGKNE) [AJ-p237]					Antibody titer compared with control conjugate (in words) [1]: same level of an antibody titer; Antibody titer with respect to human αSyn, relative to control [1, 5]: 0.91; Antibody titer with respect to aggregated human αSyn, relative to control [2, 6]: 0.95
ELKLIFLHRLKRLRKRLKRKXKKTQLGKNE (ELKLIFLHRLKRLRKRLKRK[Ahx]KKTQLGKNE) [AJ-p229]					Antibody titer compared with control conjugate (in words) [1]: same level of an antibody titer; Antibody titer with respect to human αSyn, relative to control [1, 5]: 0.92; Antibody titer with respect to aggregated human αSyn, relative to control [2, 6]: 1.02
ELKLIFLHRLKRLRKRLKRKXKRDQLGKNE (ELKLIFLHRLKRLRKRLKRK[Ahx]KRDQLGKNE) [AJ-p227]	4267 ± 3200	3072 ± 2748			Antibody-inducing ability regarding the aggregated human αSyn (in words) [2]: particularly strong antibody-inducing ability
ELKLIFLHRLKRLRKRLKRKαKEAYEMPSEE [AJ-αK-p150]			0.95	1.05	
ELKLIFLHRLKRLRKRLKRKαKKKDQLGKNE [AJ-αK-p54]			0.99	0.92	
ELKLIFLHRLKRLRKRLKRKϵKEAYEMPSEE [AJ-εK-p150]			0.82	0.86	
ELKLIFLHRLKRLRKRLKRKϵKKKDQLGKNE [AJ-εK-p54]			0.70	0.81	
ELKLIFLHRLKRLRKRLKRKϵKKKEAYEMPSEE [AJ-εKKK-p150]			0.79	0.90	
ELKLIFLHRLKRLRKRLKRKϵKKKKEAYEMPSEE [AJ-εKKKK-p150]			0.97	1.00	
ELKLIFLHRLKRLRKRLKRKϵKKKKKDQLGKNE [AJ-εKKK-p54]			0.74	0.88	
ELKLIFLHRLKRLRKRLKRKϵKKKKKKDQLGKNE [AJ-εKKKK-p54]			0.77	0.90	
